Results as given in patent US20150038473A1, “STABLE POVIDONE-IODINE COMPOSITIONS WITH STEROIDS OR NON-STEROIDAL ANTI-INFLAMMATORIES” (FORESIGHT BIOTHERAPEUTICS, INC., priority 2011, published 2015).
Values joined by “and” are separate entries in the source; they are usually repeats but may differ in a detail not shown here. Identical values can stand only once.

How the values were obtained:
[1] = Stability testing of steroids and NSAIDS combined with 0.6% povidone iodine at room temperature
Procedure: Steroids and NSAIDS were mixed with PVP-I at the concentration of 0.6% w/w on Day 1. The resultant mixtures will be split to glass vials and stored at room temperature. fluorometholone alcohol, medrysone, prednisone sodium phosphate, rimexolone, hydrocortisone, hydrocortisone acetate, lodoxamide tromethamine, nepafenac, bromfenac, and ketorolac. Testing timepoints included day 0 (Time Zero), and week 4. Tests were conducted at room temperature. The testing samples were analyzed using liquid chromatography and tandem mass spectrometry (LC/MS/MS) methods at Day 0, and Week 4. The steroids and NSAIDS standards were also analyzed and steroids and NSAIDS levels in testing samples were determined.
For Tables VIII-XIII, a: Nominal concentration in HPLC samples; b: Calculated concentration in HPLC samples; c: Dilution factor; d: Calculated concentration in stability samples; e: Spiked 50 μL of H2O and stored at room temperature without PVP-I.

[2] = Stability testing of steroids combined with povidone iodine (PVP-I, 0.4%), HPLC/UV with LC-MS/MS confirmation; settings: for degradation products observed: two week and/or one month samples in the presence of PVP-I 0.4%
Procedure: PVP-I was prepared in water at the concentration of 100 mg/mL (10%). One milliliter of the solution, suspension, or emulsion was mixed with 40 μL of 10% PVP-I in 1.5 mL amber glass vials, followed by storage under both room temperature and 40° C. for 2 weeks and one month. The resultant samples in the presence of PVP-I were analyzed using HPLC. The four steroid levels were measured against the reference standard samples stored under room temperature in the absence of PVP-I (0.4%).
Weigh 1 g of PVP-I and dissolve in 10 mL of water.
Aliquot 1 mL of ophthalmic solution (USP, 0.1%) into eight amber HPLC vials to give the following samples:
Used the resultant samples as time zero samples for HPLC analysis.
The same as Method 1 except the gradient was changed as follows: […]
The software provided with the HPLC system (LCSolution™ software, version 1.23, installed by SHIMADZU) was used to integrate the peak area.
The measured peak area was converted into concentrations (μg/mL) using the following equation: […]
HPLC Methods: The same as HPLC Method 1, 2, and 3 under Section 2.4.
The Day 0, Two Week, and One Month stability test samples were analyzed with reference standard samples (stored at room temperature in the absence of PVP I) using HPLC Method 1. The sample in the absence of PVP-I with the same concentration of dexamethasone phosphate as those stability samples at the presence of PVP-I was stored in the same stability chamber at 40° C. for one month as control sample. The control sample was analyzed under the same conditions. The concentrations of dexamethasone phosphate in the stability samples were calculated. The HPLC/UV chromatograms of all reference standards and stability testing samples are depicted in FIG. 6 to FIG. 13.
(§1) The Day 0, Two Week, and One Month stability test samples were analyzed with reference standard samples (stored at room temperature in the absence of PVP I) using HPLC Method 2. The sample in the absence of PVP-I with the same concentration of prednisolone acetate as those stability samples at the presence of PVP-I was stored in the same stability chamber at 40° C. for two week and one month as control samples. The control samples were analyzed under the same conditions. The concentrations of prednisolone acetate in the stability samples were calculated. The data were summarized in Table V. The HPLC/UV chromatograms of all reference standards and stability testing samples are depicted in FIG. 18 to FIG. 23.
as §1, with “3.” for “2.”, “loteprednol etabonate” for “prednisolone acetate”, “calculated.” for “calculated. The data were summarized in Table V.”, “28” for “18”, “33.” for “23.”
as §1, with “3.” for “2.”, “difluprednate” for “prednisolone acetate”, “calculated.” for “calculated. The data were summarized in Table V. The HPLC/UV chromatograms of all reference standards and stability testing samples are depicted in FIG. 18 to FIG. 23.”

[3] = Day 0, room temperature, 0.6% PVP-I, mean of replicates
[4] = Day 0, room temperature, 0.6% PVP-I, single replicates
[5] = four weeks control, spiked 50 μL of H2O, room temperature without PVP-I
[6] = four weeks, room temperature, 0.6% PVP-I, mean of replicates
[7] = four weeks, room temperature, 0.6% PVP-I, single replicates
[8] = 2 weeks, 40° C., with PVP-I 0.4%
[9] = 2 weeks, room temp, with PVP-I 0.4%
[10] = one month, 40° C., with PVP-I 0.4%, mean of two runs
[11] = one month, 40° C., with PVP-I 0.4%, single samples
[12] = one month, room temp, with PVP-I 0.4%
[13] = 2 weeks, 40° C. control, stored without PVP-I
[14] = Day 0, room temp, with PVP-I 0.4%, mean of replicates
[15] = Day 0, room temp, with PVP-I 0.4%, single replicates
[16] = one month, 40° C. control, stored without PVP-I

Nc1c(CC(=O)O)cccc1C(=O)c1ccc(Br)cc1 [Bromfenac, bromfenac]
% of Std [1, 3]: 98.86%
% of Std [1, 4]: 99.74% and 97.96%
% of Day 0 [1, 5]: 101.19%
% of Std [1, 5]: 100.03%
% of Day 0 [1, 6]: 99.37%
% of Std [1, 6]: 98.23%
% of Day 0 [1, 7]: 100.01% and 98.73%
% of Std [1, 7]: 98.87% and 97.6%

C[C@@H]1C[C@H]2[C@@H]3CCC4=CC(=O)C=C[C@]4(C)[C@@]3(F)[C@@H](O)C[C@]2(C)[C@@]1(O)C(=O)COP(=O)([O-])[O-].[Na+].[Na+] [Dexamethasone Sodium Phosphate]
% of Day 0 [2, 8]: 84.57%
% of Day 0 [2, 9]: 83.04%
stability in the presence of PVP-I (result in words) ([2]; PVP-I 0.4%, room temperature and 40° C., up to one month): not stable
% of Day 0 [2, 10]: 84.09%
% of Std [2, 10]: 87.00%
% of Day 0 [2, 11]: 84.42% and 83.76%
% of Day 0 [2, 12]: 84.24%
degradation products observed [2]: three additional peaks
degradation products observed ([2]; listed as dexamethasone phosphate): Three degradation products (D1, D2, and D3) were observed

CCCC(=O)O[C@]1(C(=O)COC(C)=O)CC[C@H]2[C@@H]3C[C@H](F)C4=CC(=O)C=C[C@]4(C)[C@@]3(F)[C@@H](O)C[C@@]21C [Difluprednate]
% of Day 0 [2, 13]: 89.50%
% of Std [2, 13]: 89.50%
% of Day 0 [2, 8]: 99.30%
% of Std [2, 8]: 95.57%
% of Day 0 [2, 9]: 103.23%
% of Std [2, 9]: 99.36%
% of Std [2, 14]: 96.25%
% of Std [2, 15]: 95.78% and 96.72%
% of Day 0 [2, 16]: 97.86%
% of Std [2, 16]: 97.86%
% of Day 0 [2, 11]: 100.24%
% of Std [2, 11]: 96.48%
% of Day 0 [2, 12]: 104.47%
% of Std [2, 12]: 100.56%

CC(=O)[C@@]1(O)CC[C@H]2[C@@H]3C[C@H](C)C4=CC(=O)C=C[C@]4(C)[C@@]3(F)[C@@H](O)C[C@@]21C [Fluorometholone, fluorometholone]
% of Std [1, 3]: 101.28%
% of Std [1, 4]: 101.42% and 101.14%
% of Day 0 [1, 5]: 97.97%
% of Std [1, 5]: 99.22%
% of Day 0 [1, 6]: 98.44%
% of Std [1, 6]: 99.7%
% of Day 0 [1, 7]: 98.03% and 98.87%
% of Std [1, 7]: 99.28% and 100.14%

CC(=O)OCC(=O)[C@@]1(O)CC[C@H]2[C@@H]3CCC4=CC(=O)CC[C@]4(C)[C@H]3[C@@H](O)C[C@@]21C [Hydrocortisone acetate, hydrocortisone acetate]
% of Std [1, 3]: 100.57%
% of Std [1, 4]: 101.62% and 99.52%
% of Day 0 [1, 5]: 101.08%
% of Std [1, 5]: 101.66%
% of Day 0 [1, 6]: 100.95%
% of Std [1, 6]: 101.53%
% of Day 0 [1, 7]: 100.58% and 101.33%
% of Std [1, 7]: 101.15% and 101.91%

CCOC(=O)O[C@]1(C(=O)OCCl)CC[C@H]2[C@@H]3CCC4=CC(=O)C=C[C@]4(C)[C@H]3[C@@H](O)C[C@@]21C [Loteprednol Etabonate]
% of Day 0 [2, 13]: 101.69%
% of Std [2, 13]: 101.69%
% of Day 0 [2, 8]: 100.07%
% of Std [2, 8]: 100.54%
% of Day 0 [2, 9]: 101.43%
% of Std [2, 9]: 101.91%
% of Std [2, 14]: 100.48%
% of Std [2, 15]: 101.00% and 99.95%
% of Day 0 [2, 16]: 97.64%
% of Std [2, 16]: 97.64%
% of Day 0 [2, 11]: 96.02%
% of Std [2, 11]: 96.48%
% of Day 0 [2, 12]: 100.72%
% of Std [2, 12]: 101.20%

NC(=O)Cc1cccc(C(=O)c2ccccc2)c1N [Nepafenac, nepafenac]
% of Std [1, 3]: 98.7%
% of Std [1, 4]: 98.22% and 99.18%
% of Day 0 [1, 5]: 100.06%
% of Std [1, 5]: 98.76%
% of Day 0 [1, 6]: 97.2%
% of Std [1, 6]: 95.94%
% of Day 0 [1, 7]: 97.83% and 96.58%
% of Std [1, 7]: 96.56% and 95.32%

CC(=O)OCC(=O)[C@@]1(O)CC[C@H]2[C@@H]3CCC4=CC(=O)C=C[C@]4(C)[C@H]3[C@@H](O)C[C@@]21C [Prednisolone Acetate]
% of Day 0 [2, 13]: 100.74%
% of Std [2, 13]: 100.74%
% of Day 0 [2, 8]: 96.60%
% of Std [2, 8]: 101.08%
% of Day 0 [2, 9]: 99.24%
% of Std [2, 9]: 103.84%
% of Std [2, 14]: 104.64%
% of Std [2, 15]: 104.83% and 104.45%
% of Day 0 [2, 16]: 100.29%
% of Std [2, 16]: 100.29%
% of Day 0 [2, 11]: 96.79%
% of Std [2, 11]: 101.28%
% of Day 0 [2, 12]: 95.66%
% of Std [2, 12]: 100.10%

C[C@]12C=CC(=O)C=C1CC[C@@H]1[C@@H]2C(=O)C[C@@]2(C)[C@H]1CC[C@]2(O)C(=O)COP(=O)([O-])[O-].[Na+].[Na+] [Prednisone sodium phosphate, prednisone sodium phosphate]
% of Std [1, 3]: 97.76%
% of Std [1, 4]: 97.93% and 97.59%
% of Day 0 [1, 5]: 102.87%
% of Std [1, 5]: 100.57%
% of Day 0 [1, 6]: 95.66%
% of Std [1, 6]: 93.52%
% of Day 0 [1, 7]: 95.1% and 96.23%
% of Std [1, 7]: 92.97% and 94.07%

CCC(=O)[C@@]1(C)[C@H](C)C[C@H]2[C@@H]3CCC4=CC(=O)C=C[C@]4(C)[C@H]3[C@@H](O)C[C@@]21C [Rimexolone, rimexolone]
% of Std [1, 3]: 99.67%
% of Std [1, 4]: 98.83% and 100.5%
% of Day 0 [1, 5]: 97.41%
% of Std [1, 5]: 97.09%
% of Day 0 [1, 6]: 99.88%
% of Std [1, 6]: 99.55%
% of Day 0 [1, 7]: 100.23% and 99.53%
% of Std [1, 7]: 99.9% and 99.2%

N#Cc1cc(NC(=O)C(=O)O)c(Cl)c(NC(=O)C(=O)O)c1.NC(CO)(CO)CO.NC(CO)(CO)CO [lodoxamide, lodoxamide tromethamine]
stability in PVP-I (result in words) ([1]; 0.6% PVP-I, room temperature, week 4): appeared to be stable
